Source: US20100298214A1, “TREATMENT OF AUTOIMMUNE DISEASE” (MASSACHUSETTS INSTITUTE OF TECHNOLOGY, priority 2007, published 2010)

Experiments:
prediabetic NOD mice [1] = tested on: prediabetic NOD mice
Procedure: (§1) NOD mice were obtained from Taconic Farms. Female NOD mice were used in all the studies and monitored for diabetes by checking urine glucose levels at least two times per week, starting around 12 weeks of age. Mice were considered diabetic when urinary glucose level reached 500 mg/dl, as measured with Diastix (Bayer Diagnostics). […] BALB/c mice were purchased from Jackson Laboratory. EA16NOD mice were obtained from Drs. Diane Mathis and Christopher Benoist. Cxcr4^fif Lck-Cre mice and littermate Cxcr4^−if Lck-Cre were on the mixed 129/C57BL/6 background and were generated by breeding Cxcr4^+if Lck-Cre mice. All mice were kept under specific pathogen free facilities. For AMD3100 treatment, prediabetic NOD mice were given AMD3100 (5 mg/kg) subcutaneously daily for the indicated lengths of time. For analysis of T cell distribution, mice were sacrificed at 2 hours after the last AMD3100 injection.
Single-cell suspensions were prepared from the spleen, lymph nodes (e.g., superficial cervical, brachial, axillary, inguinal, mesenteric, and pancreas-draining lymph nodes), and bone marrow (e.g., obtained by flushing two femurs and two tibias with cold RPMI 1640 medium containing 5% fetal calf serum [FCS]). All staining antibodies were purchased from BDbioscience, except anti-Foxp3, lineage markers (Lin), and c-Kit and Sea-1, which were from E-bioscience, Stem Cell Technologies, and Biolegend, respectively. Cells were stained in the presence of 2.5 μg/ml anti-FcR antibody in PBS containing 0.1% BSA and 0.1% NaN3 and analyzed on a FACScaliber or a LSR II or a FACSAria, collecting 10,000 to 1,000,000 live cells per sample. Analyses were carried out with Flowjo software. For analysis of LSK cells, 10% of total cells with low level of lineage marker expression were gated for further analysis of Sca-1 versus c-Kit expression profiles. Intracellular staining of Foxp3 and Ki67 was performed according to the manufacturer's instruction.
AMD3100 is a small molecule antagonist of CXCR4 (De Clercq, 2003, supra; incorporated herein by reference). […] Thus, prediabetic NOD mice were given AMD3100 (5 mg/kg) daily for 8 days, and the distribution and phenotype of T cells in their bone marrow were assayed.

NOD mice [2] = experiment: Diabetes incidence monitored by urine glucose level; assay type: in vivo, mouse
Text: NOD mice were obtained from Taconic Farms. […] BALB/c mice were purchased from Jackson Laboratory. EA16NOD mice were obtained from Drs. Diane Mathis and Christopher Benoist. […] All mice were kept under specific pathogen free facilities.
To test whether continuous AMD3100 treatment can inhibit the development of diabetes, prediabetic NOD mice (15 weeks of age) were given AMD3100 daily for 14 weeks. PBS-treated NOD mice started to show evidence of diabetes at 16 weeks of age, and by 29 weeks of age, all mice developed diabetes (FIG. 8D).

prediabetic NOD mice [3] = conditions: daily for 8 days (FIGS. 8A and 8B)
Procedure: as §1

[4] = tested on: sublethally irradiated male NOD mice; conditions: Aboumrad et al., 2007; cited from earlier work
CXCR4 = target: T1, CXCR4 (Homo sapiens, UniProt P61073); conditions: induction of internalization after binding; Liu et al., 2004; cited from earlier work
T1 construct: endogenous in cells; host or cells: human peripheral mononuclear cells (PBMCs)

NOD mice [5] = conditions: cited from earlier work
[6] = treatment for 8 days (FIG. 10G)
[7] = treatment for 8 days (FIG. 10H)

T1 sequence (P61073 whole entry): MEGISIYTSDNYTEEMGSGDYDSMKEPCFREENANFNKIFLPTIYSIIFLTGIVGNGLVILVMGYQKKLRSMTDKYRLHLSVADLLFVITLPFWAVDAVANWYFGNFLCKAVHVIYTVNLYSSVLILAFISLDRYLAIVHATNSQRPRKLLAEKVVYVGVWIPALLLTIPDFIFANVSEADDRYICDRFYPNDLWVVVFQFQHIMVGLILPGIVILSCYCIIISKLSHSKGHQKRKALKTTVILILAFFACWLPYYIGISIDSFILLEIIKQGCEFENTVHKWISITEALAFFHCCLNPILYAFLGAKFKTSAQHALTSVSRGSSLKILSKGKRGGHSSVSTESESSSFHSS

## Cl.Cl.Cl.Cl.Cl.Cl.Cl.Cl.O.O.c1cc(CN2CCCNCCNCCCNCC2)ccc1CN1CCCNCCNCCCNCC1 [AMD3100, 1,1′-[1,4-phenylenebis(methylene)]-bis-1,4,8,11-tetraazacyclotetradecane octahydrochloride dihydrate]
Prediabetic NOD mice [1]; 5 mg/kg daily for 8 days (FIG. 5B)
  proportion of CD4 T cells with the naïve phenotype (CD45RB^hi CD44^lo) in bone marrow: preferentially reduced
Prediabetic NOD mice [1]; 5 mg/kg daily for 8 days, compared to PBS (FIG. 5A)
  proportion of both CD4 and CD8 T cells in the bone marrow: significantly reduced
Prediabetic NOD mice [1]; 8 days, compared to PBS-treated NOD mice, p=0.06 (FIG. 10D)
  percentage of HSC in the bone marrow: reduced
Prediabetic NOD mice [1]; AMD3100 treatment of NOD mice
  percentage of T cells that proliferated in the spleen and pancreas-draining lymph nodes: did not significantly affect
Prediabetic NOD mice [1]; NOD mice following AMD3100 treatment (FIG. 6)
  distribution of NKT cells, dendritic cells, or B cells: nor any change
Prediabetic NOD mice [1]; bone marrow, prediabetic NOD mice 15-16 weeks of age, daily for 8 days, n=4, p<0.01 vs PBS
  percentages (mean±SE) of CD45RB^hi CD44^lo naïve T cells among TCR+CD4+ cells: 24.8±3.2%
Prediabetic NOD mice [1]; prediabetic NOD mice, 8 days (FIG. 6)
  NKT cell distribution in various organs: does not affect
Prediabetic NOD mice [1]; treatment for 8 days (FIG. 7C)
  number of HSCs (Lin-Sca1+c-Kit+) in the bone marrow: significantly reduced
Prediabetic NOD mice [1]; [6]
  percentage of Foxp3+CD4+ Treg cells in the bone marrow: increased
  percentages of Tregs in the pancreas-draining lymph node (PDLN): increased significantly
  percentages of Tregs in the spleen: increased significantly
Prediabetic NOD mice [1]; [7]
  number of Tregs in the spleen: increased significantly
  total number of Tregs in the bone marrow: decreased
NOD mice [2]; after three weeks of daily treatment
  time after termination of treatment at which mice began to develop diabetes: two weeks
NOD mice [2]; by 26 weeks of age, three weeks of daily treatment, same level as PBS-treated mice
  diabetes incidence after termination of treatment: 70%
NOD mice [2]; daily for 14 weeks from 15 weeks of age, up to 29 weeks of age (FIG. 8D)
  mice that developed diabetes during continuous treatment: none
NOD mice [2]; daily for three weeks from 15-16 weeks of age, period between 17 and 20 weeks of age (FIG. 8C)
  mice that developed diabetes during treatment: none
Prediabetic NOD mice [3]; prediabetic NOD mice 15 weeks of age
  lymphocyte infiltration into the islets (insulitis): significantly reduced
Prediabetic NOD mice [3]; prediabetic NOD mice
  peri-insulitis: without affecting
[4]
  diabetes development in the transfer model: promotes

## O=C1c2c(O)cc(O)cc2O[C@H](c2cc(O)c(O)c(O)c2)[C@H]1O [ampelopsin]
CXCR4
  CXCR4 on the surface of human peripheral mononuclear cells (PBMCs): decrease

## G-CSF: granulocyte colony-stimulating factor, a known suppressor of CXCL12 expression
NOD mice [5]; NOD mice, literature
  insulitis and diabetes: reduced
  onset of type I diabetes: significantly delays

## CXCL12: chemokine (C-X-C motif) ligand 12, administered systemically (Yano et al., 2007)
NOD mice [5]; Yano et al., 2007
  diabetes on systemic administration: ameliorates
